Like-named read-outs stand apart in the source and are kept apart here.
How the values were obtained:
[1] = system: adipocytes (3T3-L1) and myotubes (C2C12); assay: Fatty acid oxidation and dose-response screening, cell type not stated; assay type: cell-based, mouse; settings: for synergy with leucine or HMB in stimulating fatty acid oxidation: compound at its no-effect concentration with leucine 0.5 mM or HMB 5 μM
[2] = system: diet-induced obesity mice; assay: High fat diet-induced obese, insulin resistant mice: GTT, ITT, glucose, insulin, HOMAIR, muscle Western blot (Example 12); assay type: in vivo, C57/BL6 mice; settings: HFD, no metformin; for glucose tolerance test (fasting and post-prandial hyperglycemia): Leu 24 g/kg diet with or without Res 12.5 mg/kg diet
[3] = system: Caenorhabditis elegans; assay: Lifespan of C. elegans (Example 10); assay type: in vivo; settings: basal conditions; leucine 0.5 mM, nicotinic acid 10 nM
Experimental: Eggs were hatched on a starved plate overnight. […] All treatments were added with the indicated concentrations to E. coli the agar plates. […] The worms were maintained at 20° C. throughout the duration of the study. Worms were transferred to new plates daily to eliminate progeny. […] The study was continued until the last animal was dead. Data were analyzed via Kaplan-Meier survival curves using Prism 6 (GraphPad Software) and statistical significance was determined by the Log-rank (Mantel-Cox) test.

[4] = system: C2C12 myotubes; assay: Glucose utilization (extracellular acidification response to glucose) in myotubes; assay type: cell-based, mouse
[5] = biological target: T1, Sirt3 (Mus musculus, UniProt Q8R104); assay: Sirt3 stimulation; assay type: cell-based; settings: leucine 0.5 mM, HMB 5 μM, resveratrol 200 nM
T1 construct: endogenous in cells; host or cells: 3T3-L1 adipocytes and/or C2C12 myotubes (inferred)
T1 sequence (Q8R104 1-334): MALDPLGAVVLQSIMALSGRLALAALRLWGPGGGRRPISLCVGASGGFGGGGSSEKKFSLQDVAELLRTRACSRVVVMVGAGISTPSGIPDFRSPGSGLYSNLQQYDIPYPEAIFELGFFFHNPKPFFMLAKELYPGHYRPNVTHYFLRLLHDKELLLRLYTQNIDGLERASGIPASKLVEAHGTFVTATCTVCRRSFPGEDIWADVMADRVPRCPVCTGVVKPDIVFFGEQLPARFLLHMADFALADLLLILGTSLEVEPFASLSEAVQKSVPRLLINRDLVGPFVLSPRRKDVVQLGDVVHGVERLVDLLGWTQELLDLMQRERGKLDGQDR

[6] = system: LDL receptor knockout mice; assay: LDL receptor knockout mice on western diet: plasma lipids, atherosclerosis, macrophage infiltration (Example 7); assay type: in vivo, mouse
Source text: LDL receptor knockout (LDLRKO) mice were obtained from Jackson Laboratories (Bar Harbor, Me.), and housed in groups under room temperature in a humidity-controlled environment with a regular light and dark cycle. The mice were provided free access to an atherogenic western diet (WD) containing 0.21% cholesterol (by weight) and 40% calories from fat and water for 4 weeks prior to treatment. For treatment, the mice were given (a) the WD diet alone, (b) WD and 24 g of leucine/kg diet, (c) WD and 24 g of leucine/kg diet and 50 mg nicotinic acid/kg diet, (d) WD and 24 g of leucine/kg diet and 250 mg nicotinic acid/kg diet, or (e) WD and 1000 mg nicotinic acid/kg diet; this is approximately equivalent to a low therapeutic dose of nicotinic acid in hypercholesterolemic humans (˜1,500 mg/day). The treatments were administered for eight weeks continuously.
Blood samples of the mice in all groups were obtained from tails of the mice at following four and eight weeks of administration. The serum/plasma levels of triglyceride, total cholesterol and cholesterol esters were measured. Following treatment, food was removed for four hours and the animals were euthanized.
Blood was collected into EDTA-coated tubes to analyze plasma lipid and cholesterol profiles. Plasma total cholesterol (TC, Pointe Scientific, Canton, Mich.), free cholesterol (FC, Wako, Richmond, Va.) and triglyceride (TG, Wako, Richmond, Va.) concentrations were measured using enzymatic assays according to manufacturer's instructions. Cholesterol ester (CE) was calculated as the difference between TC and FC.
To assess atherosclerosis, the circulatory system was perfused following euthanasia with phosphate-buffered saline (PBS) before removing the heart and aorta. The upper one-third of the heart was dissected and embedded in Optimal Cutting Temperature Compound (Sakura Tissue-Tek, Torrance, Calif.), frozen, and stored at −80° C. Blocks were serially cut at 8 μm intervals and stained with hematoxylin and 0.5% Oil Red O (Sigma-Aldrich) to evaluate aortic sinus atherosclerotic intimal area. Atherosclerotic lesion area and Oil Red O positive area were quantified using Image-Pro Plus software (Media Cybernetics, Bethesda, Md.). Whole aorta (from sinotubular junction to iliac bifurcate) was dissected and fixed in 10% formalin, and the adventitia was cleaned. Aortas were opened along the longitudinal axis and pinned onto black silicon elastomer (Rubber-Cal, Santa Ana, Calif.) for the quantification of atherosclerotic lesion area. The percentage of total aortic surface covered with atherosclerotic lesions was quantified by Image-Pro Plus software (Media Cybernetics, Bethesda, Md.) and used to determine the total lesion area.
To assess macrophage infiltration, Sections of aortic sinus were immuno-stained with rat monoclonal antibody against macrophage-specific CD68 (Clone FA11, 1:75, AbD Serotec, Raleigh, N.C.) followed by staining with alkaline phosphatase-conjugated mouse anti-rat (for CD68, 1:50) secondary antibodies (Jackson ImmunoResearch laboratories, West Grove, Pa.). Control slides contain no primary antibody. The CD68-positive areas were analyzed using Image-Pro Plus software (Media Cybernetics, Bethesda, Md.).

[7] = system: diabetic db/db mice; settings: for decrease in blood glucose over the 30 minute linear portion of the insulin tolerance test: insulin 0.75 U/kg
[8] = high dose metformin 300 mg/kg bw

Molecule: O=C(O)/C=C/c1ccc(O)c(O)c1 [Caffeic acid]
- concentrations that exert no effect (dose-response curves; sub-therapeutic dose) ([1]; compound alone): ≤ 1000 nM

Molecule: OC[C@@H](O)[C@@H](O)[C@H](O)[C@@H](O)CO [Sorbitol]
- synergy with leucine or HMB in stimulating fatty acid oxidation [1]: no synergy

Molecule: CC(C)Cn1c(=O)n(C)c(=O)c2[nH]cnc21 [IBMX, 3-isobutyl-1-methylxanthine, reference compound]
- synergy with leucine or HMB in stimulating fatty acid oxidation [1]: weak but statistically significant synergy with HMB, but not leucine

Molecule: Cn1c(=O)c2[nH]cnc2n(C)c1=O [Theophylline, reference compound]
- concentrations that exert no effect (dose-response curves; sub-therapeutic dose) ([1]; compound alone): below 1 μM

Molecule: CC(C)C[C@H](N)C(=O)O [Leucine, leucine]
- glucose tolerance test (fasting and post-prandial hyperglycemia) [2]: not significantly affected
- glucose tolerance test (fasting and post-prandial hyperglycemia) ([2]; listed as leucine): no independent effect
- insulin tolerance test ([2]; Leu 24 g/kg diet): no independent effect
- effect on lifespan [3]: no independent effect
- increase in insulin-stimulated glucose utilization ([4]; C2C12 myotubes, 5 nM insulin, galegine 5 μM, leucine 0.5 mM): no effect
- stimulation of Sirt3 [5]: no independent effects
- decrease in aortic macrophage infiltration (CD68 positive area) ([6]; eight weeks, doses as E77): significant independent effect
- decrease in atherosclerotic lesion size (lesion and lipid area) ([6]; eight weeks, nicotinic acid 1,000 mg/kg diet, leucine 24 g/kg diet, or leucine + nicotinic acid 50 mg/kg diet, vs western diet alone): exerted an independent effect
- decrease in plasma cholesterol esters ([6]; four weeks, doses as E73): no independent effect
- decrease in plasma total cholesterol ([6]; four weeks, western diet + nicotinic acid 1,000 mg/kg diet, leucine 24 g/kg diet, or leucine + nicotinic acid 50 or 250 mg/kg diet): no independent effect

Molecule: O=c1oc2c(O)c(O)cc3c(=O)oc4c(O)c(O)cc1c4c23 [Ellagic acid]
- activity in dose-response curves ([1]; even at high concentrations (50 μM)): little activity

Molecule: O[C@H]1[C@H](O)[C@@H](O)[C@H](O)[C@@H](O)[C@H]1O [Myo-inositol]
- synergy with leucine or HMB in stimulating fatty acid oxidation [1]: no synergy

Molecule: Fucoxanthin
- concentrations that exert no effect (dose-response curves; sub-therapeutic dose) ([1]; compound alone): ≤ 100 nM

Molecule: OC[C@@H](O)[C@@H](O[C@H]1O[C@H](CO)[C@@H](O)[C@H](O)[C@H]1O)[C@H](O)[C@@H](O)CO [Maltitol]
- concentrations that exert no effect (dose-response curves; sub-therapeutic dose) ([1]; compound alone): ≤ 100 nM
- synergy with leucine or HMB in stimulating fatty acid oxidation [1]: no synergy

Molecule: O=C(O[C@@H]1Cc2c(O)cc(O)cc2O[C@@H]1c1cc(O)c(O)c(O)c1)c1cc(O)c(O)c(O)c1 [EGCG, epigallocatechin gallate]
- direct stimulation of fatty acid oxidation ([1]; compound alone): minimally active
- synergy with leucine or HMB in stimulating fatty acid oxidation [1]: do not detect synergistic effects
- increase in glucose utilization in myotubes ([4]; extracellular acidification response to glucose, concentrations as in E26): no independent effect

Molecule: CN(C)C(=N)N=C(N)N [Metformin]
- reduction of plasma insulin ([7]; db/db mice, 2 weeks, high dose metformin 300 mg/kg bw (1.5 g/kg diet)): 27%
- effect on plasma glucose [7, 8]: no significant effect
- effects on body composition [7, 8]: no significant effects
- plasma insulin ([7]; high dose metformin 300 mg/kg bw, control 62): 45 uU/mL
- effects on any variable studied ([7]; low dose (150 mg/kg) and very low dose (50 mg/kg) metformin alone): no significant independent effects
- decrease in blood glucose over the 30 minute linear portion of the insulin tolerance test ([7]; low or very low dose of metformin, alone or as blend): minimal changes
- effect on visceral fat mass ([7]; metformin at any dosage in the absence of HMB): not affected
- decrease in blood glucose over the 30 minute linear portion of the insulin tolerance test ([7]; standard metformin dose (1.5 g/kg diet)): ~60 mg/dL
